Source: US11053204B2, “Pyrimidinyloxy benzene derivatives as herbicides” (FMC Corporation, priority 2015, dated 2021)

Legend:
Format in all cases: in vivo
[1] = tested on: sedge, umbrella (small-flower umbrella sedge Cyperus difformis); assay: Test C flooded paddy test, plant response rating; settings: flood, scale 0 to 100
Description: (§1) At the same time, plants selected from these crop and weed species and also chickweed (common chickweed, Stellaria media), buckwheat, wild (wild buckwheat, Polygonum convolvulus), wild mustard (Sinapis arvensis), field poppy (Papaver rhoeas), field violet (Viola arvensis), geranium, cutleaf (cutleaf geranium, Geranium dissectum), Canada thistle (Cirsium arvense), and speedwell (bird's-eye speedwell, Veronica persica), were planted in pots containing Sunshine Redi-Earth® planting medium comprising spaghnum peat moss, vermiculite, starter nutrients and dolomitic limestone and treated with postemergence applications of test chemicals formulated in the same manner. Plants ranged in height from 2 to 18 cm (1- to 4-leaf stage) for postemergence treatments. Treated plants and controls were maintained in a greenhouse for 13 to 15 d, after which time all species were compared to controls and visually evaluated. Plant response ratings, summarized in Table C, are based on a scale of 0 to 100 where 0 is no effect and 100 is complete control. A dash (-) response means no test result.
(§2) Plant species in the flooded paddy test consisted of rice (Oryza sativa), sedge, umbrella (small-flower umbrella sedge Cyperus difformis), ducksalad (Heteranthera limosa), and barnyardgrass (Echinochloa crus-galli) grown to the 2-leaf stage for testing. At time of treatment, test pots were flooded to 3 cm above the soil surface, treated by application of test compounds directly to the paddy water, and then maintained at that water depth for the duration of the test.

rice (Oryza sativa) = assay: Test C flooded paddy test, plant response rating; settings: flood, scale 0 to 100
Description: as §1, §2

[2] = tested on: barnyardgrass (Echinochloa crus-galli); assay: Test C flooded paddy test, plant response rating; settings: flood, scale 0 to 100
Description: as §1, §2

[3] = tested on: ducksalad (Heteranthera limosa); assay: Test C flooded paddy test, plant response rating; settings: flood, scale 0 to 100
Description: as §1, §2

[4] = tested on: nightshade (eastern black nightshade, Solanum ptycanthum); assay: Test C preemergence, plant response rating
[5] = tested on: windgrass (Apera spica-venti); assay: Test C preemergence, plant response rating
[6] = tested on: pigweed (Amaranthus retroflexus); assay: Test C preemergence, plant response rating; settings: Preemergence

Row | Structure (SMILES) | Sedge, Umbrella plant response rating ([1]; 31 g ai/ha) | Sedge, Umbrella plant response rating ([1]; 62 g ai/ha) | Sedge, Umbrella plant response rating ([1]; 125 g ai/ha) | Sedge, Umbrella plant response rating ([1]; 250 g ai/ha) | Rice plant response rating (rice (Oryza sativa); 31 g ai/ha) | Rice plant response rating (rice (Oryza sativa); 62 g ai/ha) | Rice plant response rating (rice (Oryza sativa); 125 g ai/ha) | Rice plant response rating (rice (Oryza sativa); 250 g ai/ha) | Barnyardgrass plant response rating ([2]; 31 g ai/ha) | Barnyardgrass plant response rating ([2]; 62 g ai/ha) | Barnyardgrass plant response rating ([2]; 125 g ai/ha) | Barnyardgrass plant response rating ([2]; 250 g ai/ha) | Ducksalad plant response rating ([3]; 31 g ai/ha) | Ducksalad plant response rating ([3]; 62 g ai/ha) | Ducksalad plant response rating ([3]; 125 g ai/ha) | Ducksalad plant response rating ([3]; 250 g ai/ha) | also measured
1 | C=C(Br)COC(=O)c1c(Br)cccc1Oc1ncc(Cl)cn1 [Compound 61] | 80 | 80 | 85 | 85 | 20 | 20 | 20 | 20 | 0 | 0 | 20 | 40 | 50 | 75 | 90 | 90 | Plant response rating, Nightshade ([4]; 16 g ai/ha, scale 0 to 100): 60; Plant response rating, Nightshade ([4]; 31 g ai/ha, scale 0 to 100): 60; Plant response rating, Nightshade ([4]; 62 g ai/ha, scale 0 to 100): 50; Plant response rating, Nightshade ([4]; 125 g ai/ha, scale of 0 to 100): 75; Plant response rating, Windgrass ([5]; 16 g ai/ha, scale 0 to 100): 0; Plant response rating, Windgrass ([5]; 31 g ai/ha, scale 0 to 100): 5; Plant response rating, Windgrass ([5]; 62 g ai/ha, scale 0 to 100): 40; Plant response rating, Windgrass ([5]; 125 g ai/ha, scale of 0 to 100): 70
2 | O=C(CCC(F)(F)F)c1c(Br)cccc1Oc1ncc(Cl)cn1 [Compound 92] | 20 | 60 | 90 | 100 | 10 | 15 | 15 | 15 | 0 | 0 | 20 | 40 | 30 | 60 | 95 | 100 | Plant response rating, Pigweed ([6]; 125 g ai/ha, scale of 0 to 100): 100; Plant response rating, Pigweed ([6]; 31 g ai/ha, scale 0 to 100): 100; Plant response rating, Pigweed ([6]; 62 g ai/ha, scale 0 to 100): 100
